Test results reported in paper PMC11076555, “Dishevelled2 activates WGEF via its interaction with a unique internal peptide motif of the GEF” (Communications Biology, 2024).

Columns and labels:
[1] = molecular target: T1, Dvl2^PDZ (PDZ domain of human Dishevelled2) (Homo sapiens, UniProt O14641); assay: Microscale thermophoresis (MST) binding to Dvl2^PDZ; conditions: compared with wild-type WGEF^pep, triplicates
T1 construct: introducing a stop codon after C354 residue of Dvl2^PDZ to eliminate the fused peptide, cloned at the C-termini of PDZ; 6xHis (N, cleaved yes); host or cells: E. coli Rosetta (DE3)
T1 sequence (O14641 267-339 limits assumed): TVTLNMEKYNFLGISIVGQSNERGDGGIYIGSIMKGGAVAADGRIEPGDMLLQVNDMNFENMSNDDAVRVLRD
Experimental: MST experiments were performed using Monolith NT.115 instrument from Nanotemper technologies. Dvl2^PDZ domain was fluorescently labelled as per the instructions, using Monolith Redmaleimide 2nd generation-cysteine reactive label. The experimental condition consists of 10 mM Tris–HCl pH8, 150 mM NaCl, 2 mM DTT, 5% Glycerol and 0.05% Tween20. For Dvl2^PDZ-peptide affinity determination, synthetic WGEF peptides were serially diluted (1:2) 16 times, starting from an approximate concentration of 3.4 mM. 50 nM of fluorescently labelled Dvl2^PDZ domain was added to the serially diluted peptides, followed by incubation at 25 °C for 30 minutes. Thermophoresis signals were recorded at 20% of excitation power and 40% MST at 25 °C. Data was fitted using the Kd fit model in the MO. Affinity Analysis v2.3 software. Like peptides, hWGEF (330–581) protein was serially diluted to obtain a protein concentration range of 138–0.0042 µM. Experimental conditions were the same as mentioned above for peptides. All MST experiments were done in triplicates.
Guanine nucleotide exchange assays were performed in triplicates. Fluorescence decrease was fitted using a single exponential decay mode in GraphPad Prism. All results are reported with standard deviation (±SD). Statistical significance was calculated using ordinary One-way ANOVA with multiple comparisons. * Represents adjust P value with statistical significance of ****P < 0.0001, ***P < 0.001, **P < 0.01 and […]. MST assays were performed in triplicates. Data was fitted using the Kd fit model in the MO. Affinity Analysis v2.3 software. All results are reported with standard deviation (±SD). MD simulation runs for apo and peptide docked Dvl2^PDZ were performed in triplicates. Plots reported from MD simulation studies are represented with standard deviation (±SD).

[2] = tested on: Dvl2^PDZ–WGEF interaction; assay: In vitro guanine nucleotide exchange (GEF) assay, peptide competition with Dvl2^PDZ-activated xWGEF330; assay type: biochemical, Xenopus laevis (xWGEF), human (hDvl2^PDZ; conditions: 200 µM peptide, 50 µM Dvl2^PDZ, 5 µM xWGEF330, 2 µM Mant-GDP loaded RhoA, 30 min at 25 °C, fluorescence 360/440 nm, triplicates
Experimental: Guanine nucleotide exchange assays were carried out using RhoA loaded with fluorescently labelled Mant-GDP[63],[64]. Briefly, 150 μM of RhoA was incubated with 5 Molar excess of fluorescent label, i.e., Mant-GDP in a buffer containing 10 mM Tris pH 8, 150 mM NaCl, 2 mM DTT, 5 mM EDTA, 0.5 mM MgCl2 and 5% Glycerol. The reaction was incubated on ice for 30 min, followed by the addition of 10 mM MgCl2 to stop the reaction. Excess Mant-GDP was removed through buffer exchange and Mant-GDP loaded RhoA was concentrated and stored at −80 °C. For assays, 2 μM of Mant-GDP loaded RhoA was incubated with 5 μM of xWGEF in the presence or absence of hDvl2^PDZ (0 μM, 25 μM and 50 μM) for 30 min at 25 °C. […] Once the fluorescence was stable, excess GTP (10x of labelled GTPase) was added to start the exchange reaction. […] A decrease in fluorescence was recorded using a BioTek Cytation5 plate reader with excitation and emission of 360 and 440 nm, respectively. Fluorescence was normalized and decrease was fitted using a single exponential decay mode in GraphPad Prism. […]
Guanine nucleotide exchange assays were performed in triplicates. Fluorescence decrease was fitted using a single exponential decay mode in GraphPad Prism. […]

Effect of alanine substitution on WGEF^pep–Dvl2^PDZ interaction (in words) [1] | Sequence | Effect of peptide on GEF (nucleotide exchange) activity of Dvl2^PDZ-activated xWGEF330 [2]
completely abolishes | GSTFSLAQDIP [WGEF^pepW7A, alanine variant of WGEF^pep, …] | –
completely abolishes | GSTFSLWQAIP [WGEF^pepD9A, alanine variant of WGEF^pep, …] | decrease in the exchange activity of WGEF, but not to an extent brought out by the wild-type WGEF^pep
completely abolishes | GSTFSLWQDIA [WGEF^pepP11A, alanine variant of WGEF^pep, …] | –
